In US20050124632A1, “Remedies and/or preventives for diabetic ischemic heart diseases” (priority 2001, published 2005):

Legend:
[1] = tested on: contractile protein system; assay: Relation between Ca concentration and contractile force in saponin-skinned papillary muscle fibers under acidosis (pH 6.6); assay type: cell-based, Wistar rats; settings: for Hill n / Maximum Force / PCa50 / Resting Force: acidosis (pH6.6) + 1 μM MCC-135
Method: Diabetic cardiomyopathy model is prepared in a similar manner to that in Example 1. The rats 7 months after the administration of STZ were subjected to the experiments in a similar manner to that in Example 1. The rats were sacrificed and the hearts of the rats were isolated 7 months after the administration of STZ. The following experiment was conducted according to the method of Kitada et al. which is the same as that in the Example 1. Left ventricular papillary muscles were cut off from the isolated heart in an ice cooled Krebs-Henseleit solution, and contraction-relaxation function of the papillary muscles was measured by Magnus method. Some of the papillary muscles were applied to a functional analysis on a relation between various calcium ion (Ca) concentrations and contractile force by skinned fiber method with saponin treatment. Acidosis was induced by lowering the pH of the solution from 7.0 in normal to 6.6. A mode of change of relation between the various calcium ion (Ca) concentrations and the contractile forces in the presence or absence of MCC-135 was studied.

[2] = tested on: Ca leakage from sarcoplasmic reticulum; assay: Ca leakage from sarcoplasmic reticulum in saponin-skinned papillary muscle fiber preparations (caffeine-induced tension as index); assay type: cell-based, Wistar rats; settings: MCC-135 10^-7 M to 10^-5 M, skinned fiber preparation
Method: Diabetic cardiomyopathy was induced in 7-week old Wistar rats by an intravenous injection of 40 mg/kg of Streptozotocin via each tail (purchased from Sigma, hereinafter may be referred to as “STZ”) (J. Exp. Med., 1979, 149: 623-631). Since a severe cardiac dysfunction is observed 5 to 6 months after the administration of STZ (Malone, J. I., Schocken, D. D., Morrison, A. D., Gilbert-Barness, E., Diabetic cardiomyopathy and carnitine deficiency. J-Diabetes-Complications. 1999, 13(2): 86-90), the rats were subjected to the experiments 7 months after the administration of STZ. The rats were sacrificed and the hearts of the rats were isolated 7 months after the administration of STZ. The following experiment was conducted according to the method of Kitada et al. (J. Pharmacol. Exp. Ther. 1987, 243: 633-638). Skinned fiber preparations were prepared by saponin treatments of papillary muscles of the hearts isolated from the rats 7 months after the administration of STZ and the control rats. A medium for the preparations was changed from Ca (calcium ion) free buffer solution to a solution of pCa 6.7 to have sarcoplasmic reticulum uptake a certain amount of Ca in the presence of ATP. […]

## Cc1ccc(N2CCNCC2)c(S(=O)(=O)O)c1.O [MCC-135, 5-methyl-2-(1-piperazinyl)benzenesulfonic acid monohydrate]
[1]; diabetic cardiomyopathy
  effect on the action of acidosis on cardiac muscle: blocked the action of acidosis in the diabetic cardiomyopathy
[1]; normal hearts
  effect on the action of acidosis on cardiac muscle: had no effect on the action of acidosis on the normal hearts
[1]; normal rat
  Hill n: 3.17 ± 0.42
  Maximum Force: 0.371 ± 0.027 mN/mm^2
  PCa50: 5.43 ± 0.01
  Resting Force: 0 ± 0 n.s mN/mm^2
[1]; rat with cardiomyopathy
  Hill n: 2.12 ± 0.20
  Maximum Force: 0.286 ± 0.020**, *** mN/mm^2
  PCa50: 5.55 ± 0.07
  Resting Force: 0.000 ± 0.000**, *** mN/mm^2
[2]; normal rats
  effect on Ca leakage from sarcoplasmic reticulum: had no effect
[2]; rats with diabetic cardiomyopathy (STZ, 7 months)
  effect on Ca leakage from sarcoplasmic reticulum: inhibited Ca leakage from the sarcoplasmic reticulum with diabetic cardiomyopathy in a concentration-dependant manner
